Results taken from ChEMBL document CHEMBL5576122, “Discovery of Novel Azaphenothiazine Derivatives to Suppress Endometrial Cancer by Targeting GRP75 to Impair Its Interaction with IP3R and Mitochondrial Ca2+ Homeostasis” (J Med Chem, 2024).

Experiments:
Ishikawa = assay: Inhibition of cell proliferation in human Ishikawa cells incubated for 48 hrs by CCK-8 assay
KLE = assay: Inhibition of cell proliferation in human KLE cells incubated for 48 hrs by CCK-8 assay
in vitro [1] = conditions: mouse, liver microsomes
in vitro [2] = conditions: plasma
Description: Protein binding in plasma (unknown origin)

in vitro [3] = conditions: human, liver microsomes
in vitro [4] = conditions: mouse, liver microsomes; remark: listed apart in the source
Description: Metabolic stability in mouse liver microsomes assessed as half life

in vitro [5] = conditions: human, liver microsomes; remark: listed apart in the source
CYP2D6 = CYP2D6 (Homo sapiens, UniProt P10635); assay: Inhibition of CYP2D6 (unknown origin) at 10 uM relative to control; assay type: ADME
CYP2D6, sequence (P10635 whole entry): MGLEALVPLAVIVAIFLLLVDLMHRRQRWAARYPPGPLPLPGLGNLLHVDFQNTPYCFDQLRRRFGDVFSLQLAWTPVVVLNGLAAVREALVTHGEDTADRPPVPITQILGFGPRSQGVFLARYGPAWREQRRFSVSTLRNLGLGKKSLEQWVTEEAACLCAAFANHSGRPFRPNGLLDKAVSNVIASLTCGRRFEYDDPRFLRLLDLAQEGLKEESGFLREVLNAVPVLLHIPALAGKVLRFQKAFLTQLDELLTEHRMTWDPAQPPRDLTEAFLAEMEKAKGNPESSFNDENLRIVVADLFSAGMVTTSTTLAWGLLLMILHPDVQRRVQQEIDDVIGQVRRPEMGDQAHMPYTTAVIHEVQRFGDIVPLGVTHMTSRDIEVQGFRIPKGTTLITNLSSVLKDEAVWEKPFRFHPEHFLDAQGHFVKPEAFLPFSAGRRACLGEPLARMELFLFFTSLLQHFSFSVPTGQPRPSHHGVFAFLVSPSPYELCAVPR

CYP2C19 = CYP2C19 (Homo sapiens, UniProt P33261); assay: Inhibition of CYP2C19 (unknown origin) at 10 uM relative to control; assay type: ADME
CYP2C19, sequence (P33261 whole entry): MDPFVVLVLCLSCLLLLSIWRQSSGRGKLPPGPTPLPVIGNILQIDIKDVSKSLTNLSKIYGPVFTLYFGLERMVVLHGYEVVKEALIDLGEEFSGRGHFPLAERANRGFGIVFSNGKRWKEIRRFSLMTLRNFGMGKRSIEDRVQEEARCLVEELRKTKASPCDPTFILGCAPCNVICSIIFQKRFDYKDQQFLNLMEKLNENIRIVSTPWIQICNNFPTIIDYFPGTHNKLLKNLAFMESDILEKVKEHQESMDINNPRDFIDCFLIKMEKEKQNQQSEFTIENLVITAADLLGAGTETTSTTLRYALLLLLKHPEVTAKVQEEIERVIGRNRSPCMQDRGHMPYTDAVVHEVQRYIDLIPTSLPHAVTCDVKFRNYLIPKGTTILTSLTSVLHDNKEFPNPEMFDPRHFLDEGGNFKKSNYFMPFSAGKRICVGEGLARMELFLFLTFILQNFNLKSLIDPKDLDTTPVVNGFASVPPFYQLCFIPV

CYP3A4 = CYP3A4 (Homo sapiens, UniProt P08684); assay: Inhibition of CYP3A4 (unknown origin) at 10 uM relative to control; assay type: ADME
CYP3A4, sequence (P08684 whole entry): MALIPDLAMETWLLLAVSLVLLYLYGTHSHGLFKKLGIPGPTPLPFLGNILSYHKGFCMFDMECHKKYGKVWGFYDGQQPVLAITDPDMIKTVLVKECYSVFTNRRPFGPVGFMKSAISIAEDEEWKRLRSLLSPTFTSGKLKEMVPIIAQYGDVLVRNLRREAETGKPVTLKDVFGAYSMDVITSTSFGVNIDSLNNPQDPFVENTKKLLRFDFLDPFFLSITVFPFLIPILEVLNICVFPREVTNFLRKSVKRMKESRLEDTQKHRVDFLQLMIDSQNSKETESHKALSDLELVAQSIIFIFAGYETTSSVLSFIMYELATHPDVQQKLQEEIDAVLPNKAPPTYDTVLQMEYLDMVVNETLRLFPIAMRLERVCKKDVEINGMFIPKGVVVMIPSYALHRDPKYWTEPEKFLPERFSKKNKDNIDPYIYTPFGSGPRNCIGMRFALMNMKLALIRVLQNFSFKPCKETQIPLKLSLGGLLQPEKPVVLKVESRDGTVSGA

CYP1A2 = molecular target: T1, CYP1A2 (Homo sapiens, UniProt P05177); assay: Inhibition of CYP1A2 (unknown origin) at 10 uM relative to control; assay type: ADME
T1 sequence (P05177 whole entry): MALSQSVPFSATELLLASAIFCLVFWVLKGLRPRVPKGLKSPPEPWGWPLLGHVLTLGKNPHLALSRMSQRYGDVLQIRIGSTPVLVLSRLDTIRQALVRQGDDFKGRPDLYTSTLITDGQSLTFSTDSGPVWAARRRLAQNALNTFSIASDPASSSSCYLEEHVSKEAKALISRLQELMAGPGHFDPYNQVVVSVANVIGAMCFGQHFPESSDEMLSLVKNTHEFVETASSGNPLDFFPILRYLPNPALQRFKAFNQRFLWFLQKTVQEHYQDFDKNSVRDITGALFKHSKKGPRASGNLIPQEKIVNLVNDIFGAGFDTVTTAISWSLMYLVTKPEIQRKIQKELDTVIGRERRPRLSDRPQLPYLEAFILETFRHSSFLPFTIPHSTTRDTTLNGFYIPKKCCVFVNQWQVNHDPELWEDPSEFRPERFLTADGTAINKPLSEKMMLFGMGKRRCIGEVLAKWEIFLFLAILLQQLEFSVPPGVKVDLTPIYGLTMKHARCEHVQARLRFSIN

CYP2C9 = CYP2C9 (Homo sapiens, UniProt P11712); assay: Inhibition of CYP2C9 (unknown origin) at 10 uM relative to control; assay type: ADME
CYP2C9, sequence (P11712 whole entry): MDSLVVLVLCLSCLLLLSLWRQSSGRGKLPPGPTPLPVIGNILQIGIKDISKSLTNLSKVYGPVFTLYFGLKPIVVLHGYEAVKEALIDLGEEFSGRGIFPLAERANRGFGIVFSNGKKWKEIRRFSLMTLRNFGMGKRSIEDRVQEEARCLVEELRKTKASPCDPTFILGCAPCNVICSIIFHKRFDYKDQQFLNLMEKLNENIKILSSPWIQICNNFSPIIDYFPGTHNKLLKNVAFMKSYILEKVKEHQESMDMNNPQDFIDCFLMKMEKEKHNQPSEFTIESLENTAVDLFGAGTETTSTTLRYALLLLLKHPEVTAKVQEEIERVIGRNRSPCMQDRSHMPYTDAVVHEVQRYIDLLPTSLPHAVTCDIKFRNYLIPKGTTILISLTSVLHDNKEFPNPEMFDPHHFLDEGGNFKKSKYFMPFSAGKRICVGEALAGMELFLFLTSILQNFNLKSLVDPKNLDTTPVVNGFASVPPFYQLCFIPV

Row | SMILES | IC50 (Ishikawa) | IC50 (KLE) | further results
1 | CC(C)(C)OC(=O)N1CCC2(CCN(CCCCCCN3c4cc(Cl)ccc4Sc4cccnc43)CC2)CC1 | 13.3 µM | – | –
2 | C#CCN1CCC2(CC1)CCN(CCCCCN1c3cc(Cl)ccc3Sc3cccnc31)CC2 | 4.58 µM | 8.31 µM | –
3 | CC(C)(C)OC(=O)N1CCC2(CC1)CN(CCCCCN1c3cc(Cl)ccc3Sc3cccnc31)C2 | 8.23 µM | – | –
4 | COc1ccc2c(c1)N(CCCCCN1CCC3(CC1)CCN(C(=O)OC(C)(C)C)CC3)c1ncccc1S2 | 3.95 µM | 8.06 µM | –
5 | CCCN1CCC2(CC1)CCN(CCCCCN1c3cc(Cl)ccc3Sc3cccnc31)CC2 | 1.41 µM | 3.53 µM | –
6 | O=C1CC2(CCN(CCCCCN3c4cc(Cl)ccc4Sc4cccnc43)CC2)C(=O)N1 | 14.5 µM | – | –
7 | CC(C)(C)OC(=O)N1CCC2(CCN(CCCCCN3c4ccccc4Sc4cccnc43)CC2)CC1 | 6 µM | 9.99 µM | –
8 | CC(C)(C)OC(=O)N1CCC2(CCN(CCCCCN3c4cc(Cl)ccc4Sc4cccnc43)CC2)C1 | 735 µM | 10.7 µM | –
9 | CC(=O)N1CCC2(CCN(CCCCCN3c4cc(Cl)ccc4Sc4cccnc43)CC2)CC1 | 10.4 µM | – | –
10 | CC(C)(C)OC(=O)N1C2CC1CN(CCCCCN1c3cc(Cl)ccc3Sc3cccnc31)C2 | 53.4 µM | – | –
11 | CC(C)(C)OC(=O)N1CCC2(CCN(CCCCCN3c4cc(Cl)ccc4Sc4cccnc43)C2)C1 (centres undefined) | 10.9 µM | – | –
12 | CC(C)(C)OC(=O)N1CCCC12CCN(CCCCCN1c3cc(Cl)ccc3Sc3cccnc31)CC2 | 7.4 µM | 8.52 µM | –
13 | CN1CCC2(CC1)CCN(CCCCCN1c3cc(Cl)ccc3Sc3cccnc31)CC2 | 1.21 µM | 3.17 µM | –
14 | Clc1ccc2c(c1)N(CCCCCN1CCC3(CC1)CCN(Cc1ccccc1)CC3)c1ncccc1S2 | 2.4 µM | 3.96 µM | –
15 | CC(C)(C)OC(=O)N1CCC2(CCN(CCCCCN3c4cc(Cl)ccc4Sc4cccnc43)CC2)CC1 | 5.37 µM | 9.55 µM | –
16 | O=C1CC2(CCN(Cc3ccccc3)CC2)CC(=O)N1CCCCCN1c2cc(Cl)ccc2Sc2cccnc21 | 27.5 µM | – | –
17 | CN1CCC2(CC1)CCN(CCCCCN1c3cc(OCc4ccccc4)ccc3Sc3cccnc31)CC2 | 14.6 µM | – | –
18 | CCN(CC)c1ccc2c(c1)N(CCCCCN1CCC3(CCN(C)CC3)CC1)c1ncccc1S2 | 17.5 µM | – | –

Row | SMILES | IC50 (Ishikawa) | IC50 (KLE) | further results
19 | CC(C)(C)OC(=O)N1CC2(CN(CCCCCN3c4cc(Cl)ccc4Sc4cccnc43)C2)C1 | 12.2 µM | – | –
20 | CC(C)(C)OC(=O)N1CCC2(CCCN(CCCCCN3c4cc(Cl)ccc4Sc4cccnc43)C2)CC1 | 47.5 µM | – | –
21 | CC(C)(C)OC(=O)N1CC2(CCN(CCCCCN3c4cc(Cl)ccc4Sc4cccnc43)CC2)C1 | 11.4 µM | – | –
22 | CC(C)(C)OC(=O)N1CCC2(CN(CCCCCN3c4cc(Cl)ccc4Sc4cccnc43)C2)C1 | 12.7 µM | – | –
23 | CC(C)(C)OC(=O)N1CC2CC1CN2CCCCCN1c2cc(Cl)ccc2Sc2cccnc21 (centres undefined) | 21.3 µM | – | –
24 | Clc1ccc(CN2CCC3(CCN(CCCCCN4c5cc(Cl)ccc5Sc5cccnc54)CC3)CC2)cc1 | 2.57 µM | 3.49 µM | –
25 | CC(C)(C)OC(=O)N1CCC2(CCCN2CCCCCN2c3cc(Cl)ccc3Sc3cccnc32)CC1 | 13.3 µM | – | –
26 | CC(C)(C)OC(=O)N1CCC2(CCN(CCCCCN3c4cc(C(F)(F)F)ccc4Sc4cccnc43)CC2)CC1 | 6.75 µM | 14.5 µM | –
27 | CC(C)(C)OC(=O)N1CCC2(CC1)CN(CCCCCN1c3cc(Cl)ccc3Sc3cccnc31)CCO2 | 45.4 µM | – | –
28 | CN(C)CCCN1c2ccccc2Sc2ccc(Cl)cc21.Cl [CHLORPROMAZINE HYDROCHLORIDE] | 22 µM | 35 µM | CLint scaled (in vitro [1]): 724 mL/min/kg; fraction unbound (in vitro [2]): 0.0156; half-life (in vitro [3]): 23.8 min; half-life (in vitro [4]): 7.6 min; CLint scaled (in vitro [5]): 52.3 mL/min/kg
29 | CC(C)(C)OC(=O)N1CCC2(CCN(CCCCCN3c4cc(Cl)ccc4Sc4cccnc43)C2)CC1 | 11.6 µM | – | –
30 | CC(C)(C)OC(=O)N1CCC2(CC1)CCN2CCCCCN1c2cc(Cl)ccc2Sc2cccnc21 | 6.13 µM | 6.23 µM | –
31 | COc1ccc2c(c1)N(CCCCCN1CCC3(CCN(C)CC3)CC1)c1ncccc1S2 | – | – | inhibition at 10 µM (CYP2D6): 14.8%; inhibition at 10 µM (CYP2C19): 7.5%; inhibition at 10 µM (CYP3A4): 20%; inhibition at 10 µM (CYP1A2): 0%; inhibition at 10 µM (CYP2C9): 7%
32 | Clc1ccc2c(c1)N(CCCCCN1CCC3(CCNCC3)CC1)c1ncccc1S2 | 1.7 µM | 2.88 µM | –
33 | Clc1ccc2c(c1)N(CCCCCN1CCC3(CC1)CCN(Cc1ccccn1)CC3)c1ncccc1S2 | 12.8 µM | – | –
34 | CC(C)(C)OC(=O)N1C[C@]2(C)C[C@@]1(C)CN2CCCCCN1c2cc(Cl)ccc2Sc2cccnc21 | 18.7 µM | – | –
35 | CC(C)(C)OC(=O)N1CC2(CCN(CCCCCN3c4cc(Cl)ccc4Sc4cccnc43)C2)C1 | 14.4 µM | – | –
36 | CC(C)(C)OC(=O)N1CCC2(CCN(CCCCN3c4cc(Cl)ccc4Sc4cccnc43)CC2)CC1 | 11.1 µM | – | –
